In patent EP0072027A1, “Antiviral compounds” (THE WELLCOME FOUNDATION LIMITED, priority 1981, dated 1983):
Values after ≈ are worked out from the molar mass of the structure shown.

Assays:
Solubility in water = assay type: physicochemical
Source text: As mentioned above, the compounds of formula (I) have the important advantage of having a greater solubility in water than acyclovir. Thus, the compounds of formula (I) wherein X is an oxygen atom and R is a hydroxy group or amino group have solubilities of 0.4 -.0.5% and 2 - 3% w/w respectively compared with a figure of 0.14% w/w for acyclovir.

[1] = tested on: EHV-1 Pneumabort vaccine strain; assay: Comparative in vivo activity against equine rhinopneumonitis virus in hamsters, medicated drinking water (Example 15); parameters: species or system Syrian hamsters; settings: for Cumulative mortality (out of 15) on day: water conc. 0.075 mg/ml, average intake 6.6-6.8 mg/kg/day
Protocol: 50 male WO/CR Syrian hamsters were caged randomly in 10 groups of 5, with water and food (seed mix) ad lib. Hamsters were weighed on Days -3, 0, 4, and/or- at death/sacrifice. Water consumption was recorded over Days -3 to 0 to 4.
EHV-1 Pneumabort vaccine strain stored as a 10^-1 dilution, was further diluted 10^-1 in PBS for infection. On Day 0, hamsters in Groups 1-9 received 0.2 ml virus inoculum s/c in the left flank equivalent to about 2 x 10^5 PFU (plaque-forming units).
457U and 759U were dissolved in drinking water at 0.075 mg/ml. Assuming an average daily intake of […], this would result in a daily dose of around 10 mg/kg. Medicated water was provided from approximately 5 hours pre-infection for 96 hours, as below
The drug intake was calculated from the weight of the animals and the water consumption recorded over the period of the experiment.

[2] = tested on: herpes simplex virus type 1; assay: Comparative in vivo activity against herpetic encephalitis in mice (Example 18); parameters: species or system CD.1 mice; settings: for Mean reciprocal survival time: 100 mg/kg/dose twice daily for 4½ days, 300 LD50
Protocol: CD.1 mice weighing 16 - 20 gm were obtained from Charles River, Manston, Kent, U.K. The animals were housed in groups of approximately 10 and were given food and water ad lib.
The compounds namely acyclovir, 134U, 759U and 457U, were prepared as suspensions or solutions in sterile water at a concentration of 20 mg/ml prior to each experiment, and were stored at 4°C during the dosing period.
The ICI strain of herpes simplex virus type 1 was used for all experiments at a concentration of 300 LD50 (10^5 pfu)/ml). Dilutions from virus stocks ([…]) were prepared in PBS 'A'.
The test procedure is analoguous to that described in Example 13.
Three experiments were performed, in which three routes of compound administration were examined: i) subcutaneous, ii) oral and iii) intraperitoneal. […]

adenosine deaminase = adenosine deaminase (Homo sapiens, UniProt P00813); settings: Tetrahedron Letters, 21, 1980, 327-330; cited from earlier work
Sequence of adenosine deaminase (P00813 whole entry): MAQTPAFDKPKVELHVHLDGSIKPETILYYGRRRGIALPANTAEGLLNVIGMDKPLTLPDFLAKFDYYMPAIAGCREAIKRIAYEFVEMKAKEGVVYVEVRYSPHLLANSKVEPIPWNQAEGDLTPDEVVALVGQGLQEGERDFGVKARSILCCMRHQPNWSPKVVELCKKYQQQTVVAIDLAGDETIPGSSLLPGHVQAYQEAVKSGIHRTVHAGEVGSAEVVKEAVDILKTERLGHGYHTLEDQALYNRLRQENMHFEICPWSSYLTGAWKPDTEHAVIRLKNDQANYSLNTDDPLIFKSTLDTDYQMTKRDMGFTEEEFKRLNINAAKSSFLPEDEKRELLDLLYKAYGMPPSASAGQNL

Row | SMILES | solubility (Solubility in water) [mg/mL] | deaths from virus-induced hepatitis ([1]; in 15 treated hamsters, 14 deaths in 15 untreated controls) | prevention of EHV-1 induced mortality ([1]; orally in drinking water, approximately 7 mg/kg/day) | Cumulative mortality (out of 15) on day ([1]; day 2) | Cumulative mortality (out of 15) on day ([1]; day 3) | Cumulative mortality (out of 15) on day ([1]; day 4+) | Mean reciprocal survival time ([2]; Oral) | antiviral effect compared with acyclovir and 134U ([2]; any of the three routes, difference highly significant) | Mean reciprocal survival time ([2]; i.p.) | Mean reciprocal survival time ([2]; s.c.) | competitive inhibition of the enzyme (adenosine deaminase) | substrate for the enzyme (adenosine deaminase)
1 | Nc1nc(N)c2ncn(COC(CO)CO)c2n1 [Example 457U, 9-[(2-hydroxy-1-hydroxymethylethoxy)methyl]-2,6-diaminopurine] | 20 to 30 (≈ 78.7 to 118 mM) | 1 | almost completely prevented | 0 | 1 | 1 | 0.155 | greatest antiviral effect | 0.077 | 0.102 | – | –
2 | Nc1nc(N)c2ncn(COCCO)c2n1 [Example 134U, 2-amino-9-(2-hydroxy-methoxymethyl) adenine, reference compound] | – | – | – | – | – | – | 0.222 | – | 0.231 | 0.226 | – | –
3 | Nc1ncnc2c1ncn2COC(CO)CO | – | – | – | – | – | – | – | – | – | – | weak competitive inhibitor | poor substrate
